Data set [1] can be described thus: Heat stability test (UV-absorption left after storage at 50° C.). The conditions noted are these: for Heat stability: UV-absorption left after 5 days: 5 days at 50° C. in the dark; for Heat stability: UV-absorption left after 5 days / Heat stability: UV-absorption left after 50 days / Heat stability: UV-absorption left after 100 days: 1.5% in C12-C15 alkyl benzoate oil (compound 12: 5% in water), 375 nm versus sample stored at room temperature; for Heat stability: UV-absorption left after 50 days: 50 days at 50° C. in the dark; for Heat stability: UV-absorption left after 100 days: 100 days at 50° C. in the dark; for heat stability, in words: in C12-C15 alkylbenzoate oils. The data set is classed as physicochemical. As for the experimental part: Hereto, 1.5% solutions were prepared of compounds 4-11 and 13 in C12-C15 alkyl benzoate oil. […] The solutions were stored in closed vessels at 50° C. in the dark. After 5, 50 and 100 days, the UV-absorption of a diluted sample was measured at 375 nm comparative to a corresponding sample stored at room temperature. The UV-absorption left after each time span is shown in Table 4 indicated by + and − signs. ++ means >95% left, +− implies between 50-95% left, − indicates <50% left.

In data set [2] the test system is human skin. Nature of the data set: Skin penetration test in diffusion cell. The data set is classed as in vitro ADME. The conditions noted are these: human skin, diffusion cell; for penetration through the skin (UV-analysis of collected receptor fluids), in words: 20 hrs. As to the method: The skin-penetration was evaluated based on the same method described on page 21 of WO2006/009451. FIG. 2 is a drawing of the skin penetration test equipment, wherein (1) indicates the position of the test sample (donor compound), (2) an ⅛″ OD× 1/32″ wall tubing, (3) the receptor input, (4) the receptor compartment and (5) the compound and receptor output that is subjected to analysis.
A compound 3 donor solution was prepared by dissolving 30 mg of compound 3 in 4 ml EtOH and 7 ml phosphate buffer (PBS) at pH 7.4. Compound 4, 6, 7, 8 and 9 donor solutions were prepared by dispersing 80 mg of these compounds in olive oil.
For each compound 4 pieces of human skin (Ø ca 3 cm, mostly epidermis) were applied on a dialysis membrane and mounted into the diffusion cell shown in the FIG. 2. The figure is a schematic drawing of the diffusion cell, wherein is indicated 1: donor compound, 2: receptor compartment, 3: receptor input, 4: compound and receptor output for analysis, 5: ⅛″ OD× 1/32″ wall tubing. The cells were mounted on a temperature controlling and stirring device. The temperature was kept at 37°. The receptor fluid was a PBS buffer. The receptor compartment was stirred magnetically. 400 μl of the donor solution was applied. The receptor fluid flowing at a speed of 1 ml/hr was collected into glass tubes (1 tube/2 hrs). After 20 hrs the penetration experiment was terminated.
Furthermore the skin parts were extracted with DMSO to dissolve any UV-absorber in the epidermis. The extracts were analysed by UV.

Data set [3] is described as follows: Spectral analysis: UV extinction value E at 375 nm. The conditions noted are these: 1% solution in DMSO at 375 nm. The data set is classed as physicochemical. The source says: The aminobutadiene compounds according to the present invention have a typical extinction value E of about 1100 to about 1500 AU/cm of a 1% solution in dimethylsulfoxide (DMSO, Sigma Aldrich ACS spectrophotometric grade) at 375 nm, which is typically the wavelength of the absorption maximum of such compounds. The exact value of E depends on the relative contribution of the core and the R-groups to the molecular weight, while the exact wavelength of the absorption maximum depends on the type of substituents. Spectra were obtained on a HP 8452A diode array spectrophotometer against a DMSO blanc.

Data set [4] can be described thus: Solubility test in C12-C15 alkyl benzoate oil (Finsolv TN). The data set is classed as physicochemical. Details: key to Solubility in Finsolv TN, dissolved amount (m/m %) 1% / Solubility in Finsolv TN, dissolved amount (m/m %) 5% / Solubility in Finsolv TN, dissolved amount (m/m %) 20% / Solubility in Finsolv TN, dissolved amount (m/m %) 50% / Solubility in Finsolv TN, dissolved amount (m/m %) 80% / Solubility in Finsolv TN, dissolved amount (m/m %) 90%: +=well-soluble; −=not soluble. As to the method:
The aminobutadiene compounds according to the present invention have an optimised solubility for cosmetic oils. […] In Table 3, the solubility of compounds 4, 12 and 13 is shown at various concentrations (+=well-soluble; -=not soluble). The compounds were dissolved at 80° C. while stirring for 1 hour and cooled down to room temperature. After 24 hours the solutions were inspected for any precipitates or crystals.

“Also recorded” adds a separate entry of the source.

For `CCCCCCCCOC(=O)C(=CC=CN(CCCN(CCCCN(CCCN(C=CC=C(C(=O)OCCCCCCCC)S(=O)(=O)c1ccccc1)Cc1ccccc1)CCCN(C=CC=C(C(=O)OCCCCCCCC)S(=O)(=O)c1ccccc1)Cc1ccccc1)CCCN(C=CC=C(C(=O)OCCCCCCCC)S(=O)(=O)c1ccccc1)Cc1ccccc1)Cc1ccccc1)S(=O)(=O)c1ccccc1` [Compound 8], in data set [1], the “Heat stability: UV-absorption left after 5 days” value (from here on “Heat stability … after 5 days”) is reported as “++ (++ means >95% left)”; the “Heat stability: UV-absorption left after 50 days” value (from here on “Heat stability … after 50 days”) is listed as “++ (++ means >95% left)”; the “Heat stability: UV-absorption left after 100 days” value (shortened to “Heat stability … after 100 days”) is reported as “++ (++ means >95% left)”; the “heat stability, in words” value is “very heat stable”. In data set [2], the “penetration into or through the skin (UV analysis of DMSO skin extracts), in words” value (“penetration into or through the skin” for short) is listed as “do not penetrate into or through the skin” and the “penetration through the skin (UV-analysis of collected receptor fluids), in words” value (“penetration through the skin” for short) is “no penetration”.

Turning to `CCCCCCCCOC(=O)C(=CC=CN(CCCCCCN(C=CC=C(C(=O)OCCCCCCCC)S(=O)(=O)c1ccccc1)Cc1ccccc1)CCCCCCN(C=CC=C(C(=O)OCCCCCCCC)S(=O)(=O)c1ccccc1)Cc1ccccc1)S(=O)(=O)c1ccccc1` [Compound 4], the “extinction E” value in data set [3] was determined as 1400 au/cm. In addition, the “Solubility in Finsolv TN, dissolved amount (m/m %) 1%” value in data set [4] (1% m/m, dissolved at 80° C. for 1 hour, cooled to room temperature, inspected after 24 hours) was “+”. For the same compound, in data set [4] (5% m/m, dissolved at 80° C. for 1 hour, cooled to room temperature, inspected after 24 hours), the “Solubility in Finsolv TN, dissolved amount (m/m %) 5%” value is recorded as “+”. Also, in data set [4] (20% m/m, dissolved at 80° C. for 1 hour, cooled to room temperature, inspected after 24 hours), the “Solubility in Finsolv TN, dissolved amount (m/m %) 20%” value is listed as “+”. In addition, the “Solubility in Finsolv TN, dissolved amount (m/m %) 50%” value in data set [4] (50% m/m, dissolved at 80° C. for 1 hour, cooled to room temperature, inspected after 24 hours) is “+”. Further, the “Solubility in Finsolv TN, dissolved amount (m/m %) 80%” value in data set [4] (80% m/m, dissolved at 80° C. for 1 hour, cooled to room temperature, inspected after 24 hours) is reported as “+”. In addition, in data set [4] (90% m/m, dissolved at 80° C. for 1 hour, cooled to room temperature, inspected after 24 hours), the “Solubility in Finsolv TN, dissolved amount (m/m %) 90%” value is given as “+”. The “solubility in C12-C15 alkyl benzoate oil (Finsolv TN), in words” value in data set [4] (all concentrations) was “very well soluble at all concentrations”. Besides, in data set [1], the “Heat stability … after 5 days” value is “++ (++ means >95% left)”; the “Heat stability … after 50 days” value is reported as “++ (++ means >95% left)”; the “Heat stability … after 100 days” value was “++ (++ means >95% left)”; the “heat stability, in words” value was “very heat stable”. Further, in data set [2], the “penetration into or through the skin” value was “do not penetrate into or through the skin” and the “penetration through the skin” value was “no penetration”.

As to `CCCCCCCCOC(=O)C(=CC=CN(CCN(C=CC=C(C(=O)OCCCCCCCC)S(=O)(=O)c1ccccc1)Cc1ccccc1)CCN(C=CC=C(C(=O)OCCCCCCCC)S(=O)(=O)c1ccccc1)Cc1ccccc1)S(=O)(=O)c1ccccc1` [Compound 9], in data set [1], the “Heat stability … after 5 days” value is recorded as “++ (++ means >95% left)”; the “Heat stability … after 50 days” value is given as “++ (++ means >95% left)”; the “Heat stability … after 100 days” value is given as “++ (++ means >95% left)”; the “heat stability, in words” value is on record as “very heat stable; also recorded: good heat stability”. In data set [2], the “penetration into or through the skin” value is recorded as “do not penetrate into or through the skin” and the “penetration through the skin” value is on record as “no penetration”.

These data come from patent US8318980B2, “UV absorbing compounds” (Fujifilm Manufacturing Europe B.V., priority 2007, dated 2012).
